Experimental data taken from PubChem BioAssay (NCI).
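96-well plates; 48 h exposure; 5 concentrations. Endpoints by linear interpolation between flanking doses. Not reached: highest tested concentration assigned. At the GI50, growth is halved. At the TGI there is no net growth.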

What was measured:
Experiment in all cases: NCI anticancer screen, dose series, 48 h
UACC-257 melanoma = tested on: UACC-257 melanoma
HCC-2998 colon = tested on: HCC-2998 colon
KM12 colon = tested on: KM12 colon
NCI-H226 lung = tested on: NCI-H226 lung
SF-539 CNS = tested on: SF-539 CNS
T-47D breast = tested on: T-47D breast
EKVX NSCLC = tested on: EKVX NSCLC
LOX IMVI melanoma = tested on: LOX IMVI melanoma
SK-MEL-28 melanoma = tested on: SK-MEL-28 melanoma
NCI/ADR-RES ovarian = tested on: NCI/ADR-RES ovarian
PC-3 prostate = tested on: PC-3 prostate
MDA-MB-231 breast = tested on: MDA-MB-231 breast
MDA-MB-435 = tested on: MDA-MB-435
SR leukemia = tested on: SR leukemia
RXF 393 renal = tested on: RXF 393 renal
UO-31 renal = tested on: UO-31 renal
OVCAR-8 ovarian = tested on: OVCAR-8 ovarian
MCF7 breast = tested on: MCF7 breast
SN12C renal = tested on: SN12C renal
HCT-15 colon = tested on: HCT-15 colon
HL-60(TB) leukemia = tested on: HL-60(TB) leukemia
U251 CNS = tested on: U251 CNS
HS 578T breast = tested on: HS 578T breast
NCI-H23 lung = tested on: NCI-H23 lung
SK-MEL-5 melanoma = tested on: SK-MEL-5 melanoma
SK-OV-3 ovarian = tested on: SK-OV-3 ovarian
BT-549 breast = tested on: BT-549 breast
CAKI-1 renal = tested on: CAKI-1 renal
OVCAR-4 ovarian = tested on: OVCAR-4 ovarian
HCT-116 colon = tested on: HCT-116 colon
HT29 colon = tested on: HT29 colon
CCRF-CEM leukemia = tested on: CCRF-CEM leukemia
OVCAR-3 ovarian = tested on: OVCAR-3 ovarian
MALME-3M melanoma = tested on: MALME-3M melanoma
COLO 205 colon = tested on: COLO 205 colon
A498 renal = tested on: A498 renal
RPMI-8226 leukemia = tested on: RPMI-8226 leukemia
TK-10 renal = tested on: TK-10 renal
SNB-75 CNS = tested on: SNB-75 CNS
ACHN renal = tested on: ACHN renal
SK-MEL-2 melanoma = tested on: SK-MEL-2 melanoma
SW-620 colon = tested on: SW-620 colon
IGROV1 ovarian = tested on: IGROV1 ovarian
UACC-62 melanoma = tested on: UACC-62 melanoma
NCI-H522 lung = tested on: NCI-H522 lung
SF-268 CNS = tested on: SF-268 CNS
SNB-19 CNS = tested on: SNB-19 CNS
HOP-62 NSCLC = tested on: HOP-62 NSCLC
MOLT-4 leukemia = tested on: MOLT-4 leukemia
786-0 renal = tested on: 786-0 renal
NCI-H460 lung = tested on: NCI-H460 lung
HOP-92 NSCLC = tested on: HOP-92 NSCLC
OVCAR-5 ovarian = tested on: OVCAR-5 ovarian
SF-295 CNS = tested on: SF-295 CNS
K-562 leukemia = tested on: K-562 leukemia
DU-145 prostate = tested on: DU-145 prostate
M14 melanoma = tested on: M14 melanoma
A549 NSCLC = tested on: A549 NSCLC

With `Nc1nc2cc(CC[C@H]3C[C@@H](n4ccc5c(N)ncnc54)[C@H](O)[C@@H]3O)ccc2cc1Br` the GI50 (UACC-257 melanoma) was 3.68 µM, the TGI (UACC-257 melanoma) was 19 µM and the GI50 (HCC-2998 colon) was 11.2 µM. The TGI (HCC-2998 colon) was 24.4 µM, the GI50 (KM12 colon) was 11 µM and the TGI (KM12 colon) was 25.9 µM. The GI50 (NCI-H226 lung) was 2.71 µM, the TGI (NCI-H226 lung) was 26.8 µM and the GI50 (SF-539 CNS) was 13.2 µM. For the same molecule, the TGI (SF-539 CNS) was 27.6 µM, the GI50 (T-47D breast) was 0.785 µM and the TGI (T-47D breast) was 27.2 µM. The GI50 (EKVX NSCLC) was 4.22 µM, the TGI (EKVX NSCLC) was 22 µM and the GI50 (LOX IMVI melanoma) was 3.95 µM. It also gave a TGI (LOX IMVI melanoma) of 22.6 µM, a GI50 (SK-MEL-28 melanoma) of 12.2 µM and a TGI (SK-MEL-28 melanoma) of 25.4 µM. The GI50 (NCI/ADR-RES ovarian) was 10.5 µM, the TGI (NCI/ADR-RES ovarian) was 26.9 µM and the GI50 (PC-3 prostate) was 11 µM. The TGI (PC-3 prostate) was 25.9 µM, the GI50 (MDA-MB-231 breast) was 11.1 µM and the TGI (MDA-MB-231 breast) was 24.4 µM. It also gave a GI50 (MDA-MB-435) of 4.34 µM, a TGI (MDA-MB-435) of 18.4 µM and a GI50 (SR leukemia) of 18.7 µM. The TGI (SR leukemia) was > 100 µM, the GI50 (RXF 393 renal) was 6.95 µM and the TGI (RXF 393 renal) was 22.9 µM. For the same molecule, the GI50 (UO-31 renal) was 2.92 µM, the TGI (UO-31 renal) was 18 µM and the GI50 (OVCAR-8 ovarian) was 7.73 µM. For the same molecule, the TGI (OVCAR-8 ovarian) was 34.1 µM, the GI50 (MCF7 breast) was 1.82 µM and the TGI (MCF7 breast) was 19.1 µM. It also gave a GI50 (SN12C renal) of 8.59 µM, a TGI (SN12C renal) of 22.4 µM and a GI50 (HCT-15 colon) of 11.3 µM. The TGI (HCT-15 colon) was 25.6 µM, the GI50 (HL-60(TB) leukemia) was 14.1 µM and the TGI (HL-60(TB) leukemia) was 38.5 µM. The GI50 (U251 CNS) was 13 µM, the TGI (U251 CNS) was 29.8 µM and the GI50 (HS 578T breast) was 14.1 µM. For the same molecule, the TGI (HS 578T breast) was 36.8 µM, the GI50 (NCI-H23 lung) was 2.07 µM and the TGI (NCI-H23 lung) was 23.9 µM. The GI50 (SK-MEL-5 melanoma) was 0.579 µM, the TGI (SK-MEL-5 melanoma) was 2.98 µM and the GI50 (SK-OV-3 ovarian) was 13.4 µM. For the same molecule, the TGI (SK-OV-3 ovarian) was 39.2 µM, the GI50 (BT-549 breast) was 2.41 µM and the TGI (BT-549 breast) was 16 µM. For the same molecule, the GI50 (CAKI-1 renal) was 4.38 µM, the TGI (CAKI-1 renal) was 21.9 µM and the GI50 (OVCAR-4 ovarian) was 2.06 µM. For the same molecule, the TGI (OVCAR-4 ovarian) was 19.1 µM, the GI50 (HCT-116 colon) was 2.45 µM and the TGI (HCT-116 colon) was 19.9 µM. It also gave a GI50 (HT29 colon) of 2.46 µM, a TGI (HT29 colon) of 24.3 µM and a GI50 (CCRF-CEM leukemia) of 12.3 µM. For the same molecule, the TGI (CCRF-CEM leukemia) was > 100 µM, the GI50 (OVCAR-3 ovarian) was 10 µM and the TGI (OVCAR-3 ovarian) was 26.1 µM. For the same molecule, the GI50 (MALME-3M melanoma) was 7.42 µM, the TGI (MALME-3M melanoma) was 21.5 µM and the GI50 (COLO 205 colon) was 11.3 µM. For the same molecule, the TGI (COLO 205 colon) was 37.3 µM, the GI50 (A498 renal) was 2.38 µM and the TGI (A498 renal) was 18.9 µM. For the same molecule, the GI50 (RPMI-8226 leukemia) was 4.92 µM, the TGI (RPMI-8226 leukemia) was 57.2 µM and the GI50 (TK-10 renal) was 12.2 µM. For the same molecule, the TGI (TK-10 renal) was 26.3 µM, the GI50 (SNB-75 CNS) was 4 µM and the TGI (SNB-75 CNS) was 19.1 µM. It also gave a GI50 (ACHN renal) of 12.3 µM, a TGI (ACHN renal) of 28.5 µM and a GI50 (SK-MEL-2 melanoma) of 10.9 µM. It also gave a TGI (SK-MEL-2 melanoma) of 25.1 µM, a GI50 (SW-620 colon) of 13.3 µM and a TGI (SW-620 colon) of 27.7 µM. For the same molecule, the GI50 (IGROV1 ovarian) was 10.2 µM, the TGI (IGROV1 ovarian) was 23.1 µM and the GI50 (UACC-62 melanoma) was 8.95 µM. For the same molecule, the TGI (UACC-62 melanoma) was 21.7 µM, the GI50 (NCI-H522 lung) was 9.26 µM and the TGI (NCI-H522 lung) was 28.8 µM. For the same molecule, the GI50 (SF-268 CNS) was 11.3 µM, the TGI (SF-268 CNS) was 27 µM and the GI50 (SNB-19 CNS) was 7.09 µM. The TGI (SNB-19 CNS) was 23.5 µM, the GI50 (HOP-62 NSCLC) was 8.91 µM and the TGI (HOP-62 NSCLC) was 24.2 µM. It also gave a GI50 (MOLT-4 leukemia) of 2.43 µM, a TGI (MOLT-4 leukemia) of 64.3 µM and a GI50 (786-0 renal) of 12.7 µM. The TGI (786-0 renal) was 28.9 µM, the GI50 (NCI-H460 lung) was 10.9 µM and the TGI (NCI-H460 lung) was 26.5 µM. It also gave a GI50 (HOP-92 NSCLC) of 6.66 µM, a TGI (HOP-92 NSCLC) of 39.9 µM and a GI50 (OVCAR-5 ovarian) of 14.2 µM. It also gave a TGI (OVCAR-5 ovarian) of 30.1 µM, a GI50 (SF-295 CNS) of 3.25 µM and a TGI (SF-295 CNS) of 19 µM. The GI50 (K-562 leukemia) was 1.38 µM, the TGI (K-562 leukemia) was > 100 µM and the GI50 (DU-145 prostate) was 13.1 µM. For the same molecule, the TGI (DU-145 prostate) was 27 µM, the GI50 (M14 melanoma) was 11.4 µM and the TGI (M14 melanoma) was 25.6 µM. For the same molecule, the GI50 (A549 NSCLC) was 12.4 µM and the TGI (A549 NSCLC) was 34.3 µM.
